Structures can show the parent of a compound that is named as a salt.
Assays:
human ACC1 = human ACC1 (Homo sapiens, UniProt Q13085); experiment: Acetyl CoA carboxylase (ACC) activity inhibition test, human ACC1; type: biochemical; settings: 1 μmol/liter compound; control: DMSO well without test compound; read-out: Inhibition (%) by 1 μmol/liter Chemical, human ACC1
Protocol: (§1) A. Pharmacological Test Example (Acetyl CoA Carboxylase (ACC) Activity Inhibition Test)
(§2) Concretely, 0.8 μl of the diluted test compound is added to each well of 96-well assay plate (Perkin Elmer Opti Plate), then 40 μl of a substrate solution (50 mM Hepes sodium (pH 7.5), 2 mM DTT, 10 mM ATP, 500 μM acetyl CoA, 0.17 mM NaH[^14C]O3 (58 mCi/mmol, by Amersham), 8 mM NaHCO3) is added to each well, and 40 μL of an enzyme solution (1 to 2 nM human ACC1 or human ACC2, 50 mM Hepes sodium (pH 7.5), 2 mM DTT, 40 mM MgCl2, 40 mM tripotassium citrate 1 mg/ml fetal bovine serum albumin) is added thereto. Then, the upper side of the plate is sealed up, and the plate is incubated with gently stirring at 37° C. for 40 minutes. Next, 20 μl of 1N HCl is added to each well to stop the enzyme reaction, and the assay plate is stirred overnight to remove the unreacted NaH[^14C]O3. Next, 100 μl of a scintillator (Perkin Elmer's Microscinti 40) is added to each well and the plate is stirred, then the radioactivity of the fixed [^14C] is counted using a microplate scintillation counter (Perlin Elmer's Topcount), the radioactivity of which represents the enzyme activity in each well. The human ACC1 and human ACC2 enzyme-inhibition activities of the test compounds are calculated, based on the radioactivity of the well added by DMSO without test compound as a control.

human ACC2 = human ACC2 (Homo sapiens, UniProt O00763); experiment: Acetyl CoA carboxylase (ACC) activity inhibition test, human ACC2; type: biochemical; settings: 1 μmol/liter compound; control: DMSO well without test compound; read-out: Inhibition (%) by 1 μmol/liter Chemical, human ACC2
human ACC2, sequence (O00763 whole entry): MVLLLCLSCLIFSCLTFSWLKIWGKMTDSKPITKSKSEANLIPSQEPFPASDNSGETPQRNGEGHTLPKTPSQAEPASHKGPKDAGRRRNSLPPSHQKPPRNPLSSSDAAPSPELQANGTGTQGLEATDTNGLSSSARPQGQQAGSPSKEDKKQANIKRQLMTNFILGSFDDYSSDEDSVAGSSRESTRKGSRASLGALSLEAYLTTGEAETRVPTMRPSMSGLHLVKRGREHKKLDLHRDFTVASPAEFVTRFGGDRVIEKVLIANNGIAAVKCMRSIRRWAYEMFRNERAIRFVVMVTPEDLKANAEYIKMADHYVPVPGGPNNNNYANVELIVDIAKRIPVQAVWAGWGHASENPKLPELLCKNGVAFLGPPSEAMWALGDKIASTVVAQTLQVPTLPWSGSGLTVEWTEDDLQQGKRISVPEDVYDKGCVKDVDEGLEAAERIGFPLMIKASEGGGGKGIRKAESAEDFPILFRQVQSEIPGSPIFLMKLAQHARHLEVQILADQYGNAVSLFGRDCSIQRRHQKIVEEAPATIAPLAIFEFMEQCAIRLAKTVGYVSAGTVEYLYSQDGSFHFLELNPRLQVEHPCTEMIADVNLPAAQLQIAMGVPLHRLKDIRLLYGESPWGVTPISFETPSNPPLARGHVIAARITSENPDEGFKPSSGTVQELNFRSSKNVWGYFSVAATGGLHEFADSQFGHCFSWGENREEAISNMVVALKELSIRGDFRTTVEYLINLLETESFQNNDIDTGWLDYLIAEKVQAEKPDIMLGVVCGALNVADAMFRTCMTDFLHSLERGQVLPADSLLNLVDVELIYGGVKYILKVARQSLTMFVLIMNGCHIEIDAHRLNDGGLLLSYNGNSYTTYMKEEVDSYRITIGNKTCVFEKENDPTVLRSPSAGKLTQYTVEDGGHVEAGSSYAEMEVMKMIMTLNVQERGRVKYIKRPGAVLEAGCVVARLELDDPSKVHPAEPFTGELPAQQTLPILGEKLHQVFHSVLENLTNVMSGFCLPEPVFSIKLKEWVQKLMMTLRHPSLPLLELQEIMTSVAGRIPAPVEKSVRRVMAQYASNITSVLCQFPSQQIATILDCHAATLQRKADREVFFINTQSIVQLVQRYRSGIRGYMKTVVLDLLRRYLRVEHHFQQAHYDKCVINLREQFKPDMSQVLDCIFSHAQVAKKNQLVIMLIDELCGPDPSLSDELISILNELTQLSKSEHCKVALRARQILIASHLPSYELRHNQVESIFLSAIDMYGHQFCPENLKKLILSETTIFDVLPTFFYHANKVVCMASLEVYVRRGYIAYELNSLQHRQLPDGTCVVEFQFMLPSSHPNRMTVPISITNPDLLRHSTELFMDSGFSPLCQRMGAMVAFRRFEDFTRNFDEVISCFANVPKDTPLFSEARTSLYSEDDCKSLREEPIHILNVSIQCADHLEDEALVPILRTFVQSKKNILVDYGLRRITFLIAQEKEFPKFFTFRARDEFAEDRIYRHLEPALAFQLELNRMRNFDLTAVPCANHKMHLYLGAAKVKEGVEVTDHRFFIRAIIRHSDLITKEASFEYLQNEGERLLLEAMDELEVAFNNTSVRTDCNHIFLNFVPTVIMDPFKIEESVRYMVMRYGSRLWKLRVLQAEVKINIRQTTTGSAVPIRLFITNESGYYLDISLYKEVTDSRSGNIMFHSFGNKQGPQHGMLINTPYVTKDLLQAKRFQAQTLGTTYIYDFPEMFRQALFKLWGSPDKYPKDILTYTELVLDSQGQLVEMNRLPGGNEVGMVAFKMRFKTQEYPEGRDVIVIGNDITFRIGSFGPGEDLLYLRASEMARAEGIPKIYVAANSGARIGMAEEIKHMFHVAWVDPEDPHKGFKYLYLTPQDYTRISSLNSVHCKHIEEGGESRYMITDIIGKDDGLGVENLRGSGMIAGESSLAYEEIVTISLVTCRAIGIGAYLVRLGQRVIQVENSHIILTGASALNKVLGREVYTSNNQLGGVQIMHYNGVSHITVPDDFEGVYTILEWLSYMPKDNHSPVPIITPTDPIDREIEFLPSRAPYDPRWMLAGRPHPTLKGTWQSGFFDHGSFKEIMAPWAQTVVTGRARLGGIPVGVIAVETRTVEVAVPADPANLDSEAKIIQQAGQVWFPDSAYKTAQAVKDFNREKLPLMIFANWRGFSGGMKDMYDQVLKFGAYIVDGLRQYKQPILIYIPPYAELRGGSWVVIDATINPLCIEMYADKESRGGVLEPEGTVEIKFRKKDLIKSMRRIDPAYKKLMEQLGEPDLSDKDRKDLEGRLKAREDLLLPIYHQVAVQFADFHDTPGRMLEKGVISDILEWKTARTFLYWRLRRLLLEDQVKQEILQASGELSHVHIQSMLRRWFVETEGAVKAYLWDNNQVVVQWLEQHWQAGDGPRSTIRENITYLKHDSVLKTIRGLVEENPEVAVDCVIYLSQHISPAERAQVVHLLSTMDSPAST
Protocol: as §1, §2

| SMILES | inhibition at 1 µM (human ACC1) | inhibition at 1 µM (human ACC2) |
| --- | --- | --- |
| CCOc1cc(C(=O)N2CCC3(CC2)CC(=O)c2cc(-c4nnn[nH]4)ccc2O3)nc2c(C3CC3)nccc12 [Example 21, 1′-[(8-cyclopropyl-4-ethoxy-1.7-naphthyridin-2-yl)carbonyl]-6-(1H-tetrazol-5-yl)spiro[chroman-2,4′-piperidin]-4-one] | 99% | 97% |
| COc1cc(C(=O)N2CCC3(CC2)CC(=O)c2cc(NC(C)=O)ccc2O3)nc2ccccc12 [Example 2, N-{1′-[(4-methoxyquinolin-2-yl)carbonyl]-4-oxospiro[chroman-2,4′-piperidin]-6-yl}acetamide hydrochloride] | 82% | 85% |
| COc1cc(C(=O)N2CCC3(CC2)CC(=O)c2cc(-c4nnn[nH]4)ccc2O3)nc2c(OC)cccc12 [Example 18, 1′-[(4,8-dimethoxyquinolin-2-yl)carbonyl]-6-(1H-tetrazol-5-yl)spiro[chroman-2,4′-piperidin]-4-one sodium salt] | 97% | 99% |

Now from value to compound:

| inhibition at 1 µM (human ACC1) | inhibition at 1 µM (human ACC2) | SMILES |
| --- | --- | --- |
| 97% | 97% | COc1cc(C(=O)N2CCC3(CC2)CC(=O)c2cc(N)ccc2O3)nc2c(OC)cccc12 [Example 5, 6-amino-1′-[(4,8-dimethoxyquinolin-2-yl)carbonyl]spiro[chroman-2,4′-piperidin]-4-one] |
| 100% | 99% | COc1cc(C(=O)N2CCC3(CC2)CC(=O)c2cc(Nc4ccnn4C)ccc2O3)nc2c(OC)cccc12 [Example 10, 1′-[(4,8-dimethoxyquinolin-2-yl)carbonyl]-6-[(1-methyl-1H-pyrazol-5-yl)amino]spiro[chroman-2,4′-piperidin]-4-one] |
| 100% | 98% | COc1cc(C(=O)N2CCC3(CC2)CC(=O)c2cc(NC(C)=O)ccc2O3)nc2c(OC)cccc12 [Example 3, N-{1′-[(4,8-dimethoxyquinolin-2-yl)carbonyl]-4-oxospiro[chroman-2,4′-piperidin]-6-yl}acetamide] |
| 101% | 100% | COc1cc(C(=O)N2CCC3(CC2)CC(=O)c2cc(-c4nc[nH]n4)ccc2O3)nc2c(OC)cccc12 [Example 27, 1′-[(4,8-dimethoxyquinolin-2-yl)carbonyl]-6-(1H-1,2,4-triazol-3-yl)-spiro[chroman-2,4′-piperidin]-4-one] |
| 93% | 96% | COc1cc(C(=O)N2CCC3(CC2)CC(=O)c2ccccc2O3)nc2c(OC)cccc12 [Example 4, 1′-[(4,8-dimethoxyquinolin-2-yl)carbonyl]spiro[chroman-2,4′-piperidin]-4-one] |
